Patent publication US3976771A, “Glycylglycine amide preparations and method of use antiarrhythmic” (priority 1972, dated 1976)
“Also recorded” adds a separate entry of the source.

Columns and labels:
[1] = system: mice; test: Acute oral toxicity in mice; type: in vivo; conditions: deaths during 7 days
Description: For determination of acute toxicity groups of 10 mice were treated orally with varying doses of compound observing the incidence of death, during a 7 days period. LD50 and LD 0.1 were calculated by means of a logarithmic-probit graph paper.

[2] = system: ventricular fibrillation upon exposure to chloroform vapor; test: Protection against chloroform-induced ventricular fibrillation in mice; type: in vivo
Excerpt: The method used in mice was essentially the same as described by Lawson (J. Pham. Exp. Therap. 160, 22 (1968). Male mice (NMRI, 17-25 g) were used. Unanesthetized, untreated mice show cardiac ventricular fibrillation upon exposure to chloroform vapor. The ventricular fibrillation is abolished if the animals are pretreated with appropriate doses of known antiarrhythmic agents before exposure to chloroform.
For determination of antiarrhythmic effect groups of 10 mice were pretreated by the oral route with varying sublethal doses of compound 10 to 300 min. respectively before being placed individually in a beaker containing chloroform. The mouse was removed from the beaker at the time of respiratory arrest and the thorax opened. Examination of ventricular fibrillation was made by means of ECG-recordings (lead II). The effect of the compound was expressed as the number of animals in per cent which were protected from fibrillation.

[3] = system: aconitine-induced arrhythmias; test: Protection against aconitine-induced arrhythmias in the guinea-pig; type: in vivo; conditions: for Dose of aconitine necessary for development of ECG-changes indicating Asystolie / Dose of aconitine necessary for development of ECG-changes indicating Fibrillation / Dose of aconitine necessary for development of ECG-changes indicating Tachycardia: 15 min before aconitine infusion, mean ± standard error
Description: The procedure used by Vargaftig et al. (Eur. J. Pharmacol. 6, 49, 1969) was slightly modified; Guinea-pigs of both sexes (250-400 g) were anaesthetized with uretane (1 g/kg bodyweight, i.p.). A plastic tube was introduced into the trachea and a thin plastic catheter into the jugular vein. Respiration was supported by means of a Harward Rodent Respirator 680. Aconitine was infused i.v. at a rate of 3 μg/min by means of a Palmer slow injection apparatus. The ECG (lead II) was continuously monitored. The amount of aconitine (μg/kg bodyweight) injected to induce ventricular tachycardia, fibrillation and asystolie was calculated. Test compounds were given i.p. with different time intervals between injection of drug and start of aconitine infusion.

[4] = system: ventricular arrhythmias produced by coronary artery ligation; test: Ventricular arrhythmias produced by coronary artery ligation in unanesthetized dogs; type: in vivo; conditions: two dogs, constant i.v. infusion 0.5 mg/kg/min
Description: The effects of intravenous infusion of GEA968 was also studies on two unanesthesized dogs with ventricular arrhythmias produced by coronary artery ligation, essentially following the procedure of A. S. Harris, Circulation, Vol. I, page 1318 (1950). The two dogs with well-developed arrhythmias received a constant infusion of 0.5 mg/kg/min. of GEA968.

[5] = system: contractility of the heart; test: Qualitative observation of side effects in the animal tests; type: in vivo; conditions: preliminary indication
Excerpt: However, it was qualitatively observed that the side effects of the compounds of the present invention appeared to be less significant.

[6] = due to low levels of the drug in the blood; cited from earlier work
[7] = 100 mg/kg p.o., 10 min between pretreatment and chloroform vapor
[8] = 100 mg/kg p.o., 60 min between pretreatment and chloroform vapor

In the case of `CCN(CC)CC(=O)NCC(=O)Nc1c(C)cccc1C` [GEA 968, N,N-diethylglycylglycine-2,6-xylidide], the “LD 0.1 (the dose which kills 0.1 % of the animals)” value [1] is reported as 250 mg/kg bodyweight, the “Toxicity LD50 p.o.” value [1] is reported as 535 mg/kg bodyweight and the “Percentage animals protected from fibrillation” value (from here on “Percentage animals protected”) ([2]; 54 mg/kg p.o. (one tenth of LD50), 10 min) is reported as 45 per cent. The “Percentage animals protected” value ([2]; 54 mg/kg p.o. (one tenth of LD50), 60 min) was 55 per cent, the “Percentage animals protected” value ([2]; 54 mg/kg p.o. (one tenth of LD50), 300 min) was 15 per cent and the “Percentage animals protected” value [2, 7] was 70 per cent. The “Percentage animals protected” value [2, 8] was 65 per cent, the “Percentage animals protected” value ([2]; 100 mg/kg p.o., 300 min between pretreatment and chloroform vapor) was 45 per cent and the “Percentage animals protected” value ([2]; 250 mg/kg p.o., 10 min) was 90 per cent. The “Percentage animals protected” value ([2]; 250 mg/kg p.o., 60 min) was 90 per cent, the “Percentage animals protected” value ([2]; 250 mg/kg p.o., 300 min) was 70 per cent and the “Antiarrhythmic effect in the chloroform test (in words)” value ([2]; mice, p.o.) was “good antiarrhythmic effects”. For the same compound, the “Duration of antiarrhythmic effectiveness (in words)” value ([2]; mouse, in vivo) was “especially significant”, the “Dose of aconitine necessary for development of ECG-changes indicating Asystolie” value (shortened to “Dose … of ECG-changes indicating Asystolie”) ([3]; 25 mg/kg i.p.) was 210 ± 12 μg/kg bodyweight and the “Dose of aconitine necessary for development of ECG-changes indicating Fibrillation” value (from here on “Dose … of ECG-changes indicating Fibrillation”) ([3]; 25 mg/kg i.p.) was 155 ± 10 μg/kg bodyweight. The “Dose of aconitine necessary for development of ECG-changes indicating Tachycardia” value (“Dose … of ECG-changes indicating Tachycardia” below) ([3]; 25 mg/kg i.p.) was 91 ± 6 μg/kg bodyweight, the “Dose … of ECG-changes indicating Asystolie” value ([3]; 50 mg/kg i.p.) was 378 ± 33 μg/kg bodyweight and the “Dose … of ECG-changes indicating Fibrillation” value ([3]; 50 mg/kg i.p.) was 284 ± 25 μg/kg bodyweight. The “Dose … of ECG-changes indicating Tachycardia” value ([3]; 50 mg/kg i.p.) was 161 ± 15 μg/kg bodyweight, the “Dose … of ECG-changes indicating Asystolie” value ([3]; 100 mg/kg i.p.) was 632 ± 132 μg/kg bodyweight and the “Dose … of ECG-changes indicating Fibrillation” value ([3]; 100 mg/kg i.p.) was 356 ± 32 μg/kg bodyweight. The “Dose … of ECG-changes indicating Tachycardia” value ([3]; 100 mg/kg i.p.) was 225 ± 35 μg/kg bodyweight, the “Antiarrhythmic effect in the aconitine test (in words)” value ([3]; guinea-pig, i.p.) was “markedly potent; also recorded: good antiarrhythmic effects” and the “Duration of suppression of arrhythmias” value [4] was “unusually long duration”. For the same compound, the “Effect on ventricular arrhythmias” value [4] was “suppression of the arrhythmias” and the “Effect on contractility of the heart (qualitative)” value [5] was “improving the contractility of the heart”.

In the case of `CCN(CC)CC(=O)NCC(=O)NC(C)(C)c1ccccc1` [GEA 980, N^3,N^3 -diethyl-N^1 -(α,α-dimethylbenzyl) glycylglycine amide], the “Toxicity LD50 p.o.” value [1] is reported as > 500 mg/kg bodyweight, the “Percentage animals protected” value [2, 7] is reported as 11 per cent and the “Percentage animals protected” value [2, 8] is reported as 10 per cent. The “Percentage animals protected” value ([2]; 300 mg/kg p.o., 10 min) was 25 per cent, the “Percentage animals protected” value ([2]; 300 mg/kg p.o., 60 min) was 10 per cent and the “Percentage animals protected” value ([2]; 500 mg/kg p.o., 10 min) was 65 per cent. For the same compound, the “Percentage animals protected” value ([2]; 500 mg/kg p.o., 60 min) was 0 per cent.

For `CCN(CC)CC(=O)N[C@@H](C)C(=O)NC(C)(C)c1ccccc1` [GEA 981, N^3,N^3 -diethyl-N^1 -(α,α-dimethylbenzyl)glycylalanineamide], the “LD 0.1 (the dose which kills 0.1 % of the animals)” value [1] was 610 mg/kg bodyweight, the “Toxicity LD50 p.o.” value [1] was 880 mg/kg bodyweight and the “Percentage animals protected” value ([2]; 88 mg/kg p.o. (one tenth of LD50), 10 min) was 35 per cent. For the same compound, the “Percentage animals protected” value ([2]; 88 mg/kg p.o. (one tenth of LD50), 60 min) was 10 per cent, the “Percentage animals protected” value ([2]; 610 mg/kg p.o. (LD 0.1), 10 min) was 90 per cent and the “Percentage animals protected” value ([2]; 610 mg/kg p.o. (LD 0.1), 60 min) was 45 per cent.

For `CCN(CC)[C@@H](C)C(=O)N[C@@H](C)C(=O)NC(C)(C)c1ccccc1` [GEA 982, N^3,N^3 -diethyl-N^1 -(α,α-dimethylbenzyl)alanylalanineamide], the “LD 0.1 (the dose which kills 0.1 % of the animals)” value [1] was 210 mg/kg bodyweight, the “Toxicity LD50 p.o.” value [1] was 660 mg/kg bodyweight and the “Percentage animals protected” value ([2]; 66 mg/kg p.o. (one tenth of LD50), 10 min) was 0 per cent. The “Percentage animals protected” value ([2]; 66 mg/kg p.o. (one tenth of LD50), 60 min) was 0 per cent, the “Percentage animals protected” value ([2]; 210 mg/kg p.o. (LD 0.1), 10 min) was 40 per cent and the “Percentage animals protected” value ([2]; 210 mg/kg p.o. (LD 0.1), 60 min) was 15 per cent.

In the case of `CCN(CC)CC(=O)NCC(=O)Nc1ccccc1` [GEA 984, N,N-diethylglycylglycine anilide], the “Toxicity LD50 p.o.” value [1] is reported as > 1000 mg/kg bodyweight, the “Percentage animals protected” value ([2]; 250 mg/kg p.o., 10 min) is reported as 0 per cent and the “Percentage animals protected” value ([2]; 250 mg/kg p.o., 60 min) is reported as 0 per cent. For the same compound, the “Percentage animals protected” value ([2]; 500 mg/kg p.o., 10 min) was 70 per cent, the “Percentage animals protected” value ([2]; 500 mg/kg p.o., 60 min) was 10 per cent and the “Percentage animals protected” value ([2]; 1000 mg/kg p.o., 10 min) was 75 per cent. The “Percentage animals protected” value ([2]; 1000 mg/kg p.o., 60 min) was 0 per cent, the “Dose … of ECG-changes indicating Asystolie” value ([3]; 100 mg/kg i.p.) was 284 ± 29 μg/kg bodyweight and the “Dose … of ECG-changes indicating Fibrillation” value ([3]; 100 mg/kg i.p.) was 211 ± 18 μg/kg bodyweight. For the same compound, the “Dose … of ECG-changes indicating Tachycardia” value ([3]; 100 mg/kg i.p.) was 95 ± 9 μg/kg bodyweight.

In the case of `CCN(CC)CC(=O)Nc1c(C)cccc1C` [Lidocaine, 2-diethylamino-2', 6'-acetoxylidide, reference compound], the “LD 0.1 (the dose which kills 0.1 % of the animals)” value [1] is reported as 150 mg/kg bodyweight, the “Dose … of ECG-changes indicating Asystolie” value ([3]; 25 mg/kg i.p.) is reported as 237 ± 35 μg/kg bodyweight and the “Dose … of ECG-changes indicating Fibrillation” value ([3]; 25 mg/kg i.p.) is reported as 176 ± 12 μg/kg bodyweight. For the same compound, the “Dose … of ECG-changes indicating Tachycardia” value ([3]; 25 mg/kg i.p.) was 66 ± 7 μg/kg bodyweight and the Oral antiarrhythmic effectiveness [6] was “not orally effective”.
